One data set relates to HAB-92 wt cells. The data set can be described thus: Boyden chamber transwell migration assay. It counts as cell-based, human. Particulars: 1 μM, 24 h, statistically not significant. The method, then: HCT116, SW620, LS174T, SW480 and DLD-1 cells were used in cell migration and invasion analysis performed with Boyden chamber assay. 400 μL containing 2.5×10^5 cells were seeded into each transwell chamber with filter membranes of 12.0 μm pore size (Millipore, Schwalbach, Germany). For invasion filter membranes were coated with 50 μL Matrigel (diluted 1:3 in RPMI-1640; BD Biosciences) 10 minutes before cells were seeded. Fresh medium (600 μL) were added to the bottom chamber and cells were allowed to attach to the insets for 15 hours. Both chambers were treated with 1 μM niclosamide or the respective amount of DMSO and incubated at 37° C. and 5% CO2 in a humidified incubator for 24 hours. Afterwards insets were removed and cells that had migrated through the membrane to the lower chamber were trypsinized and counted in a Neubauer chamber (LO-Laboroptik, Bad Homburg, Germany). Each well was counted ten times. Each migration or invasion experiment was performed in duplicate. The average number of migrated or invaded cells was determined for at least three independent experiments.
For WNT pathway analysis the following cells were applied: HCT116 cells (heterozygous for gain-of-function-mutated CTNNB1; wt/mut), HAB-68mut cells (deletion mutant of HCT116, expressing only gain-of-function-mutated CTNNB1: −/mut) and HAB-92 wt cells (deletion mutant of HCT116, expressing only wild-type CTNNB1: wt/−). (A) CTNNB1 genotype dependent effect of niclosamide on LEF/TCF transcription factor reporter gene expression. Cells were treated with 1 μM niclosamide for 24 hours. Reporter gene expression was determined by luciferase activity measurement. For each condition and cell line TOPflash expression was normalized to FOPflash expression. (B) CTNNB1 genotype dependent effect of niclosamide on S100A4 expression. Cells were treated with 1 μM niclosamide for 24 hours. S100A4 expression was analyzed by qRT-PCR and immunoblot. (C) CTNNB1 genotype dependent effect of niclosamide on migration rates. Cells were treated with 1 μM niclosamide for 24 hours and cell migration was determined by Boyden chamber assay. Data represents mean±SE of at least three independent experiments. Differences were analyzed by Student's t test (n.s.; not statistically significant). (D) Nuclear localization of CTNNB1 under niclosamide treatment. Nuclear extracts of HCT116 cells treated with the indicated concentrations of niclosamide for 18 hours were analyzed by immunoblot. (E) Effect of niclosamide on CTNNB1/TCF complex. Nuclear extracts of HCT116 cells treated with the indicated concentrations of niclosamide for 18 hours were analyzed by EMSA for the TCF-binding site of the S100A4 promoter. Supershift was performed by addition of a monoclonal anti-CTNNB1 antibody. […]

Another data set has as its system HCT116-CMVp-LUC cells. The data set can be described thus: HCT116-CMVp-LUC intrasplenic xenograft: liver metastasis, tumor growth, overall survival. It counts as in vivo, mice. As to conditions: for median survival: control 24 days. The procedure:
All experiments were performed in accordance with the UKCCCR guidelines and approved by the responsible local authorities (State Office of Health and Social Affairs, Berlin, Germany). HCT116-CMVp-LUC cells (3×10^6 cells per mouse, resuspended in 50 μL PBS) were intrasplenically transplanted into 6-week-old female nonobese diabetic-severe combined immunodeficiency (NOD-SCID) mice. Mice were randomly assigned to 3 groups and reatment of mice started 24 hours after cell transplantation. Mice of the control group (n=9) were treated with daily doses of solvent. Mice of the second group (n=9) were daily treated intraperitoneally with 20 mg per kg niclosamide. Mice of the third group (n=9) were treated intraperitoneally with two doses of 15 mg per kg niclosamide per day. The experimental endpoint was reached when mice appeared moribund and/or the spleen tumor was palpable. This was the case with the majority of control mice on day 24. For long-term in vivo experiments mice randomly assigned to 3 groups. Mice of the control group (n=6) were treated intraperitoneally with daily doses of solvent. Mice of the second group (n=6) were daily treated intraperitoneally with 20 mg per kg niclosamide. Mice of the third group (n=6) were daily treated intraperitoneally for 24 days with 20 mg per kg niclosamide and for the residual days with solvent. Mice were killed by cervical dislocation when tumor reached the maximum in accordance with the local authorities.
Spleen (as the transplantation site) and liver (as a metastasis target organ) were removed. The amount of S100A4 mRNA in the tumor was determined by Trizol RNA isolation of tumor cryosections and quantitative real-time RT-PCR. The level of metastasis was evaluated by scoring. For each liver, a score was calculated as the sum of the volumes of the individual metastases. For each metastasis the formula [width2]×length was applied.
For in vivo luminescence imaging mice were anesthetized with 35 mg per kg Hypnomidate (Jassen-Cilag, Neuss, Germany) and received intraperitoneally 150 mg per kg D-luciferin (Biosynth, Staad, Switzerland) dissolved in sterile PBS. Imaging was performed with the NightOWL LB 981 system (Berthold Technologies, Bad Wildbad, Germany) with exposure times of 1 second and 20 seconds. ImageJ version 2.3 was used for color coding of signal intensity (presenting a 256 grayscale) and overlay pictures.
All calculations and statistical analyses were performed with GraphPad Prism version 4.01. Student t test was used for comparison of only two groups. One-way analysis of variance (ANOVA) was applied for comparing the control group with several treated groups followed by Bonferroni post hoc multiple comparisons. In cell cytotoxicity assay the half-maximal effective concentration to which cell viability was reduced to 50% (EC50) values were calculated by sigmoidal dose-response curve fit of x=log(x) transformed data. Kaplan-Meier analysis was used to plot overall survival and differences in curves were analyzed by Logrank test. All tests were two-sided, and P values less than 0.05 were considered to be statistically significant. If not stated otherwise, means are reported with 95% confidence interval.
(A) In vivo luminescence imaging of metastasis under niclosamide treatment. HCT116-CMVp-LUC cells stably expressing firefly luciferase (LUC) were intrasplenically transplanted into mice (per group n=4) followed by daily intraperitoneal treatment with 20 mg per kg niclosamide. For luminescence imaging, mice were anesthetized at the indicated days and received intraperitoneally D-luciferin. Exposure time for lateral and ventral imaging was 20 seconds per picture. In situ imaging and imaging of isolated organs was performed for 1 second per picture exposure time. Signal intensity of grayscale images (256 scale) were color coded (from low to high signal intensity: blue, green, yellow, red, white) and overlayed with bright field picture. […]

The conditions of data set [1]: humans, taken orally; cited from earlier work.

Take `O=C(Nc1ccc([N+](=O)[O-])cc1Cl)c1cc(Cl)ccc1O` [niclosamide, 2′,5-dichloro-4′-nitrosalicylanilide]: the “migration rate, mean (relative to HCT116 control)” value in the data set with HAB-92 wt cells (control 0.36) came out at 0.32. Moreover, the “migration rate, mean difference control vs niclosamide” value in the data set with HAB-92 wt cells amounted to 0.04. Moreover, the “liver metastasis score, mean % of control” value is 37.9% with HCT116-CMVp-LUC cells (20 mg per kg daily intraperitoneally, 24 days); 36.1% in the data set on HCT116-CMVp-LUC cells (2×15 mg per kg per day intraperitoneally, 24 days); 10.9% with HCT116-CMVp-LUC cells (continuous treatment (20 mg per kg i.p. daily)); 34.9% in the data set on HCT116-CMVp-LUC cells (discontinuous treatment (20 mg per kg i.p. for 24 days, then solvent)). The “liver metastasis signal, in vivo luminescence imaging” value in the data set with HCT116-CMVp-LUC cells (20 mg per kg daily intraperitoneally, day 24) is “No or only tiny liver metastasis signals”. In addition, the “size of liver metastases” value in the data set on HCT116-CMVp-LUC cells (20 mg per kg i.p., continuously and discontinuously, vs solvent-treated animals) is reported as “clearly reduced”. In addition, the spleen tumor growth result with HCT116-CMVp-LUC cells (20 mg per kg i.p., either continuously or discontinuously, vs solvent-treated mice) is given as “clearly delayed”. The “liver metastasis, mean difference control vs treatment” value came to 89.1% with HCT116-CMVp-LUC cells (continuous treatment) and 65.1% in the data set with HCT116-CMVp-LUC cells (discontinuous treatment). For the same molecule, the “median survival ratio control vs treatment” value in the data set with HCT116-CMVp-LUC cells (continuous treatment) is reported as 0.56; in the data set with HCT116-CMVp-LUC cells (discontinuous treatment), 0.52. Further, the median survival amounted to 43 days in the data set with HCT116-CMVp-LUC cells (continuous treatment: 20 mg per kg i.p. daily) and 46.5 days in the data set with HCT116-CMVp-LUC cells (discontinuous treatment: 20 mg per kg i.p. daily for 24 days, then solvent). The side effects result in data set [1] is on record as “only slight side effects”.
